From US9486402B2, “Compositions containing berberine or analogs thereof for treating rosacea or red face related skin disorders” (Derman Biomedicine Co. Ltd, priority 2009, dated 2016)

How the values were obtained:
[1] = tested on: IL-8 release from human keratinocytes; assay: Cathelicidin peptide (LL-37)-induced IL-8 release from human keratinocytes, ELISA; format: cell-based
Method: (§1) For our in vitro study, berberine (Sigma, St. Louis, Mo., USA) was dissolved in water, methanol, ethanol or dimethyl sulfoxide (DMSO). Normal human keratinocytes (Invitrogen, CA, USA) were grown in EpiLife medium (Invitrogen, CA, USA) supplemented with 0.06 mM Ca^+2, 1% EpiLife defined growth supplement, and 1% penicillin/streptomycin (Invitrogen, CA, USA). Cells were grown at 37° C. in a humidified atmosphere of 5% CO2 and 95% air. The human keratinocytes were cultured to confluence and treated with synthetic cathelicidin peptides (LL-37) (6.4 μM) for 16 h to induce inflammatory response similar to that observed in rosacea. Some of the cathelicidin-treated keratinocyte cultures were co-incubated with berberine of concentrations from 1.25 μg/ml to 12.5 μg/ml. The keratinocytes cultures treated with cathrlicidin or cathrlicidin with 1% ethanol and without berberine were used as negative controls. Supernatants were collected and placed in a sterile 96-well plate for ELISA of interleukin-8 (IL-8), interleukin-1 alpha (IL-1 alpha), and […] (VEGF) in accordance with the manufacturer's instructions (R&D Systems, MN, USA). […]
(§2) FIG. 1. […] Keratinocytes were stimulated by cathelicidin peptide (LL-37), and the release of IL-8 (FIG. 1A), IL-1 alpha (FIG. 1B) and VEGF (FIG. 1C) by the keratinocytes was evaluated by ELISA assay.

patients with rosacea = assay: Open-label human clinical study on patients with rosacea; format: in vivo; conditions: for overall erythema severity (score 0 to 3): baseline 2.35±0.6; for overall erythema severity (score 0 to 3) / IGA score (7-point, 0 clear to 6 severe): P<0.0001 vs W0; for IGA score (7-point, 0 clear to 6 severe): baseline 4.1±1.3
Method: Method: an open-label clinical study was carried out to determine the efficacy of the topical berberine formulations of this invention for the treatment of rosacea and related skin disorders. Patients included in this study were diagnosed by dermatologists to have clinically defined rosacea. All patients were given 0.1% berberine gel twice a day for 6 weeks. At the time points of treatment initiation, and 2-weeks and 6-weeks after treatment, the patients were evaluated for their rosasea symptoms. The patients were not allowed to use other medications, including antibiotics, for their skin conditions. Only oral antihistamines were allowed for relief of pruritus symptoms. To evaluate the efficacy of treatment, the standard grading system for rosacea developed by the National Rosacea Society Expert Committee on the Classification and Staging of Rosacea was used^3. Additionally, the investigator's global assessment (IGA) and overall erythema severity of the patients were scored at week 0, week 2, and week 6 of berberine therapy. The IGA was expressed according to a 7-point scoring system with a range of 0 (clear) to 6 (severe). The severity of overall facial erythema and telangiectasia, respectively, was graded as ‘none’, ‘mild’, ‘moderate’, or ‘severe’ with scores from 0 to 3. The grading system used to assess overall facial erythema severity was described previously^38. Results: a total of 20 patients with rosacea (18 females and 2 males) were enrolled in this study. The mean age of the study population was 43.3 (19-85) years. The mean duration of rosacea prior to berberine treatment was 4 (1-24) years. Among the 20 patients with rosacea, 13 cases were of erythematotelangiectatic type (65%), 7 cases papulopustular type (35%), and […].

[2] = tested on: cathelicidin-induced lesions; assay: Mouse model of rosacea (subcutaneous cathelicidin peptide), topical treatment; format: in vivo, BALB/c and C57BL/6 mice; conditions: topical formulation containing 0.1% berberine twice a day for 2 days; 4th day; vs controls (n=3 each)
Method: The animal model of rosacea: the animal model of rosacea was adopted from previous reported^18. Briefly, BALB/c and C57BL/6 mice, shaved 24 h before treatments, were injected subcutaneously on the back with 40 μl of cathelicdin peptide (320 μM) twice a day. Forty-eight hours after the initial injection (four injections in total), erythema and edema were observed on the injected site mimicking the clinical features of rosacea.
In our experiments, cathelicidin-injected mice were treated with or without topical berberine twice a day to observe the effect of berberine on reducing inflammation. […] The cathelicidin-injected mice were then divided into 2 groups, which were treated with berberine (n=3) or not treated with berberine (n=3; as controls), respectively, for a subsequent 2 days. The topical formulation containing 0.1% berberine was applied on the cathelicidin-induced lesions twice a day. The erythematous or inflammatory lesions lasted for more than 7 days in the control group.

[3] = tested on: VEGF release from human keratinocytes; assay: Cathelicidin peptide (LL-37)-induced VEGF release from human keratinocytes, ELISA; format: cell-based; conditions: 1.25 μg/ml berberine; LL-37 6.4 μM, 16 h; vs cathelicidin peptide with 1% ethanol control; P<0.05
Method: as §1, §2

[4] = tested on: IL-1 alpha release from human keratinocytes; assay: Cathelicidin peptide (LL-37)-induced IL-1 alpha release from human keratinocytes, ELISA; format: cell-based; conditions: 1.25 μg/ml berberine; LL-37 6.4 μM, 16 h; vs cathelicidin peptide with 1% ethanol control; P<0.05
Method: as §1, §2

[5] = 0.1% berberine gel twice a day, end of treatment (6 weeks), 19 of the 20 patients

COc1ccc2cc3[n+](cc2c1OC)CCc1cc2c(cc1-3)OCO2 [berberine, 5,6-dihydro-9,10-dimethoxybenzo(g)-1,3-benzodioxolo (5,6-a) quinolizinium]
inhibition of cathelicidin induced inflammatory response (IL-8, IL-1 alpha, VEGF release) ([1]; 0-12.5 μg/ml, especially when concentration larger than 6.25 μg/ml): significant inhibit cathelicidin induced inflammatory response in a dose-dependent manner | decrease of the release of IL-8 ([1]; 1.25 μg/ml berberine, LL-37 6.4 μM, 16 h, vs cathelicidin peptide with 1% ethanol control, P<0.05): 31.4% | cases with transient itchy/stinging sensation in the area of topical medication (patients with rosacea; 0.1% berberine gel twice a day for 6 weeks, 2 cases of 20, tolerable without discontinuation): 10% | serious adverse events (patients with rosacea; 0.1% berberine gel twice a day for 6 weeks, 20 patients): no serious adverse event | patients with a mild (1) to none (0) erythema rating (patients with rosacea; [5]): 95% | patients with a mild (2) to clear (0) IGA rating (patients with rosacea; [5]): 95% | overall erythema severity (score 0 to 3) (patients with rosacea; 0.1% berberine gel twice a day, week 2): 1.5±0.5 | IGA score (7-point, 0 clear to 6 severe) (patients with rosacea; 0.1% berberine gel twice a day, week 2, 20 patients): 2.6±0.9 | overall erythema severity (score 0 to 3) (patients with rosacea; 0.1% berberine gel twice a day, week 6): 0.95±0.4 | IGA score (7-point, 0 clear to 6 severe) (patients with rosacea; 0.1% berberine gel twice a day, week 6, 20 patients): 1.6±0.8 | erythema and vascular dilatation [2]: significant reduced | decrease of the release of VEGF [3]: 29.1% | decrease of the release of IL-1 alpha [4]: 24.9%
